Columns and labels:
[1] = system: APAP overdose; experiment: Survival of mice after APAP overdose; format: in vivo, C57 BL/6 mice; conditions: FIG. 10
Procedure: Studies were then performed where C57 BL/6 mice received APAP overdose of 500 mg/kg. NACA or NAC was administered (106 mg/kg) 1.5 hours post APAP and at every 12 hours thereafter until 72 hours. The APAP group had 6 mice and the NAC and NACA groups contained 4. Mice treated with NACA/APAP survived for 150 hours, while mice treated with APAP or NAC/APAP had 60% and 30% survival respectively (FIG. 10).

[2] = system: APAP-induced hepatotoxicity; experiment: Protective effects in APAP-induced hepatotoxicity (oxidative stress and organ injury markers); format: in vivo, C57BL/6 mice
Procedure: Studies were then performed to evaluate the protective effects of NACA in APAP-induced hepatotoxicity using male C57BL/6 mice that were intraperitoneally injected with 400 mg/kg of APAP after 15 hours of fasting. The therapeutic potentials of NAC and NACA were compared by administering NAC/NACA (106 mg/kg) after 1.5 hours of APAP administration and sacrificing the mice 4 hours after the APAP administration. The GSH/GSSG ratio, a crucial antioxidant parameter, and malondialdehyde (MDA) levels were measured in liver tissue.
Alanine aminotransferase (ALT) and glutamate dehydrogenase levels were also measured in serum (FIG. 3). These are markers of livery injury.

Row | Structure (SMILES) | survival ([1]; APAP 500 mg/kg, 106 mg/kg 1.5 hours post APAP and every 12 hours until 72 hours) | oxidative stress in a number of tissues ([2]; APAP administration) | liver injury (serum ALT and glutamate dehydrogenase levels) ([2]; APAP alone, FIG. 3) | blood urea nitrogen (BUN) ([2]; APAP alone, FIG. 9) | serum creatine kinase (CK) ([2]; APAP alone, FIG. 9) | survival ([1]; APAP overdose of 500 mg/kg alone)
1 | CC(=O)N[C@@H](CS)C(=O)O [NAC, N-acetylcysteine] | 30% | – | – | – | – | –
2 | CC(=O)Nc1ccc(O)cc1 [APAP, N-acetyl-p-aminophenol] | – | increases | causes liver injury | increases | increases | 60%

From patent US20200069617A1, “USE OF N-ACETYLCYSTEINE AMIDE IN THE TREATMENT OF ACETAMINOPHEN OVERDOSE” (priority 2015, published 2020)
